Measured values as given in patent publication US12606541B2, “PPARg modulators and methods of use” (Eisai R&D Management Co., Ltd., priority 2020, dated 2026).

biological target: T1, His6-TEV-PPARγ-(234-505) (Homo sapiens, UniProt P37231); experiment: TR-FRET Assay to Measure Co-R Peptide Recruitment to PPARγ; type: biochemical; conditions: Co-R peptide recruitment to PPARγ; read-out: TR-FRET AC50
T1 construct: The His6-TEV-PPARγ-(234-505) protein for assay was expressed and purified; TEV cleavage site (N); made in house
T1 sequence (P37231 234-505): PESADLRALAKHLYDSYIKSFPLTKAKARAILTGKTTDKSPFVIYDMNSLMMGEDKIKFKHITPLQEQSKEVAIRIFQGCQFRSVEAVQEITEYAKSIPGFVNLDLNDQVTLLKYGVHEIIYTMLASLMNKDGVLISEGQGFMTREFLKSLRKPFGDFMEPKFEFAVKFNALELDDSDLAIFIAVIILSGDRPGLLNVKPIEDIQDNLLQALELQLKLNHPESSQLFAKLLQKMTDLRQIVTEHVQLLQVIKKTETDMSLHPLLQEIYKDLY
Summary of the method: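 His-tagged PPARγ (or controls) was preincubated with compound for 20 minutes at room temperature, then 5 nM anti-His terbium antibody and 200 nM FITC-labeled SMRT-ID2 corepressor peptide (final) were added for a further hour. TR-FRET signal was normalized to percent response using 500 nM T0070907 and DMSO controls.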

AC50, > 1000 nM:
COc1cc(-c2cc(C(=O)N3CCC(C(=O)NCC4(O)CCOCC4)CC3)n[nH]2)c(Cl)cn1 [1-[5-(5-chloro-2-methoxypyridin-4-yl)-1H-pyrazole-3-carbonyl]-N-[(4-hydroxyoxan-4-yl)methyl]piperidine-4-carboxamide]
COc1cc(-c2cc(C(=O)N3CCC(C(=O)NC4CCS(=O)(=O)c5ccc(F)cc54)CC3)n[nH]2)c(Cl)cn1 (stereo not drawn) [1-[5-(5-chloro-2-methoxypyridin-4-yl)-1H-pyrazole-3-carbonyl]-N-(6-fluoro-1,1-dioxo-3,4-dihydro-2H-1λ^6-benzothiopyran-4-yl)piperidine-4-carboxamide]
O=C(Nc1cccnn1)C1CCN(C(=O)c2cc(-c3ccncc3)[nH]n2)CC1 [N-(pyridazin-3-yl)-1-[5-(pyridin-4-yl)-1H-pyrazole-3-carbonyl]piperidine-4-carboxamide]
COc1cc(-c2cc(C(=O)N3CCC(C(=O)NCc4c(C)nc5cc(=O)[nH]n5c4C)CC3)n[nH]2)c(Cl)cn1 [1-[5-(5-chloro-2-methoxypyridin-4-yl)-1H-pyrazole-3-carbonyl]-N-({5,7-dimethyl-2-oxo-1H,2H-pyrazolo[1,5-a]pyrimidin-6-yl}methyl)piperidine-4-carboxamide]
COc1cc(-c2cc(C(=O)N3CCC(OC)(C(=O)NCc4cccc(Cl)c4)CC3)n[nH]2)c(Cl)cn1 [1-[5-(5-chloro-2-methoxypyridin-4-yl)-1H-pyrazole-3-carbonyl]-N-[(3-chlorophenyl)methyl]-4-methoxypiperidine-4-carboxamide]
COCC1(C(=O)NCc2cccc(Cl)c2)CCN(C(=O)c2cc(-c3cc(OC)ncc3Cl)[nH]n2)CC1 [1-[5-(5-chloro-2-methoxypyridin-4-yl)-1H-pyrazole-3-carbonyl]-N-[(3-chlorophenyl)methyl]-4-(methoxymethyl)piperidine-4-carboxamide]
Cc1nc(CNC(=O)C2CCN(C(=O)c3cc(-c4ccncc4)[nH]n3)CC2)no1 [N-[(5-methyl-1,2,4-oxadiazol-3-yl)methyl]-1-[5-(pyridin-4-yl)-1H-pyrazole-3-carbonyl]piperidine-4-carboxamide]
COc1cc(-c2cc(C(=O)N3CCC(C(=O)NCc4nc5cccnc5[nH]4)CC3)n[nH]2)c(Cl)cn1 [1-[5-(5-chloro-2-methoxypyridin-4-yl)-1H-pyrazole-3-carbonyl]-N-({3H-imidazo[4,5-b]pyridin-2-yl}methyl)piperidine-4-carboxamide]
COc1cc(-c2cc(C(=O)N3CCC(C(=O)NCc4ccccc4C#N)CC3)n[nH]2)c(Cl)cn1 [1-[5-(5-chloro-2-methoxypyridin-4-yl)-1H-pyrazole-3-carbonyl]-N-[(2-cyanophenyl)methyl]piperidine-4-carboxamide]
CC(C)CN(C)C(=O)C1CCN(C(=O)c2cc(-c3ccncc3)[nH]n2)CC1 [N-methyl-N-(2-methylpropyl)-1-[5-(pyridin-4-yl)-1H-pyrazole-3-carbonyl]piperidine-4-carboxamide]
CC1CCCC(NC(=O)C2CCN(C(=O)c3cc(-c4ccncc4)[nH]n3)CC2)C1 (stereo not drawn) [N-(3-methylcyclohexyl)-1-[5-(pyridin-4-yl)-1H-pyrazole-3-carbonyl]piperidine-4-carboxamide]
COc1cc(-c2cc(C(=O)N3CCC(C(=O)Nc4nc5ccccc5n4C)CC3)n[nH]2)c(Cl)cn1 [1-[5-(5-chloro-2-methoxypyridin-4-yl)-1H-pyrazole-3-carbonyl]-N-(1-methyl-1H-1,3-benzodiazol-2-yl)piperidine-4-carboxamide]
CC1CCC(NC(=O)C2CCN(C(=O)c3cc(-c4ccncc4)[nH]n3)CC2)CC1 (stereo not drawn) [N-(4-methylcyclohexyl)-1-[5-(pyridin-4-yl)-1H-pyrazole-3-carbonyl]piperidine-4-carboxamide]
COc1cc(-c2cc(C(=O)N3CCC(C(=O)NCc4nc5c(cnn5C)c(=O)[nH]4)CC3)n[nH]2)c(Cl)cn1 [1-[5-(5-chloro-2-methoxypyridin-4-yl)-1H-pyrazole-3-carbonyl]-N-({1-methyl-4-oxo-1H,4H,5H-pyrazolo[3,4-d]pyrimidin-6-yl}methyl)piperidine-4-carboxamide]
COc1cc(-c2cc(C(=O)N3CCC4(C(=O)NCc5cccc(Cl)c5)CC34)n[nH]2)c(Cl)cn1 (stereo not drawn) [2-[5-(5-chloro-2-methoxypyridin-4-yl)-1H-pyrazole-3-carbonyl]-N-[(3-chlorophenyl)methyl]-2-azabicyclo[3.1.0]hexane-5-carboxamide]
COc1cc(-c2cc(C(=O)N3CCC(C(=O)NC4CS(=O)(=O)Cc5ccccc54)CC3)n[nH]2)c(Cl)cn1 (stereo not drawn) [1-[5-(5-chloro-2-methoxypyridin-4-yl)-1H-pyrazole-3-carbonyl]-N-(2,2-dioxo-3,4-dihydro-1H-2λ^6-benzothiopyran-4-yl)piperidine-4-carboxamide]
O=C(Nc1ncco1)C1CCN(C(=O)c2cc(-c3ccncc3)[nH]n2)CC1 [N-(1,3-oxazol-2-yl)-1-[5-(pyridin-4-yl)-1H-pyrazole-3-carbonyl]piperidine-4-carboxamide]
O=C(NC1CCC(CCO)CC1)C1CCN(C(=O)c2cc(-c3ccncc3)[nH]n2)CC1 (stereo not drawn) [N-[4-(2-hydroxyethyl)cyclohexyl]-1-[5-(pyridin-4-yl)-1H-pyrazole-3-carbonyl]piperidine-4-carboxamide]
COc1cc(-c2cc(C(=O)N3CCC(C(=O)NCc4ccc5[nH]cnc5c4)CC3)n[nH]2)c(Cl)cn1 [N-[(1H-1,3-benzodiazol-5-yl)methyl]-1-[5-(5-chloro-2-methoxypyridin-4-yl)-1H-pyrazole-3-carbonyl]piperidine-4-carboxamide]
Cc1cc(-c2cc(C(=O)N3CCC(C(=O)N[C@H]4CC[C@@](O)(C(F)(F)F)CC4)CC34CC4)n[nH]2)c([C@@H](C)O)cn1 (single isomer, unassigned)
COc1c(C)cccc1CNC(=O)C1CCN(C(=O)c2cc(-c3ccncc3)[nH]n2)CC1 [N-[(2-methoxy-3-methylphenyl)methyl]-1-[5-(pyridin-4-yl)-1H-pyrazole-3-carbonyl]piperidine-4-carboxamide]
CN(Cc1ccccc1)C(=O)C1CCN(C(=O)c2cc(-c3ccncc3)[nH]n2)CC1 [N-benzyl-N-methyl-1-[5-(pyridin-4-yl)-1H-pyrazole-3-carbonyl]piperidine-4-carboxamide]
Cc1cc(CNC(=O)C2CCN(C(=O)c3cc(-c4ccncc4)[nH]n3)CC2)cnc1C [N-[(5,6-dimethylpyridin-3-yl)methyl]-1-[5-(pyridin-4-yl)-1H-pyrazole-3-carbonyl]piperidine-4-carboxamide]
COc1cc(-c2cc(C(=O)N3CCC(C(=O)NCc4nccn4C)CC3)n[nH]2)c(Cl)cn1 [1-[5-(5-chloro-2-methoxypyridin-4-yl)-1H-pyrazole-3-carbonyl]-N-[(1-methyl-1H-imidazol-2-yl)methyl]piperidine-4-carboxamide]
